Test results from patent publication US20260159534A1, “NOVEL CRYSTAL FORMS OF PEPTIDE BORIC ACID COMPOUND AND PREPARATION METHODS THEREFOR” (JIANGSU CHUANGTE PHARMACEUTICAL TECHNOLOGY CO., LTD., priority 2021, published 2026).
Converted amounts (≈) assume the structure as drawn.

Key:
Assay type in all cases: physicochemical
[1] = Kinetic solubility determination in ultra-pure water; conditions: upper limit 1000 μg/mL
Description: (§1) Four crystal samples produced, namely the eutectic sample and the crystal form A sample of Example 1, the crystal form B sample of Example 2, and the crystal form D sample of Example 3, were subjected to solubility tests and a kinetic solubility determination tests in ultra-pure water, and the solubility results are shown in Tables 1 and 2.

[2] = Stability influence factor tests (high temperature, high humidity, illumination); conditions: for Stability during the 10 days of examination (in words): high temperature, high humidity, illumination
Experimental: Four crystal samples produced, namely the eutectic sample and the crystal form A sample of Example 1, the crystal form B sample of Example 2, and the crystal form D sample of Example 3, were each subjected the stability influence factor tests under high temperature (60° C., in the dark), high humidity (relative humidity of 90%[…], in the dark), and illumination (4500 lx±500 lx), and sampling was carried out to on day 0, day 5 day, and day 10 for […] determination, and the results are shown in Table 4 below.

[3] = Solubility test in ultra-pure water; conditions: for Solubility property (in words): solubility and kinetic solubility; for Solubility: upper limit 300 μg/mL
Description: as §1

[4] = Hygroscopicity test (dynamic vapor sorption); conditions: 25° C.; for Hygroscopicity / Hygroscopicity comparison (in words): 0-80% RH; for Weight change in the range of 0% RH to 80% RH: dynamic vapor sorption
Experimental: Four crystal samples produced, namely the eutectic sample and the crystal form A sample of Example 1, the crystal form B sample of Example 2, and the crystal form D sample of Example 3, were subjected to hygroscopicity tests at 25° C. under a changing relative humidity of 0-80% RH.

[5] = 5 d, high humidity (relative humidity of 90%±50, in the dark)
[6] = 5 d, high temperature (60° C., in the dark)
[7] = 5 d, illumination (4500 lx±500 lx)
[8] = 10 d, high humidity (relative humidity of 90%±50, in the dark)
[9] = 10 d, high temperature (60° C., in the dark)
[10] = 10 d, illumination (4500 lx±500 lx)

Kinetic solubility [1] [mg/mL] | Stability results (content) ([2]; 0 h) [%] | Stability results (content) [2, 5] [%] | Stability results (content) [2, 6] [%] | Stability results (content) [2, 7] [%] | Stability results (content) [2, 8] [%] | Stability results (content) [2, 9] [%] | Stability results (content) [2, 10] [%] | Stability during the 10 days of examination (in words) [2] | Solubility property (in words) [3] | Solubility [3] [mg/mL] | Hygroscopicity [4] | Weight change in the range of 0% RH to 80% RH [4] | Compound | Hygroscopicity comparison (in words) [4]
1.07859 | 99.16 | 98.41 | 98.92 | 99.22 | 99.08 | 99.25 | 99.11 | no significant content change | excellent solubility property | 0.3028 (≈ 618 µM) | Nonhygroscopic | Less than 0.2% | CSC[C@H](NC(=O)c1cc(Cl)ccc1Cl)C(=O)N[C@@H](CC(C)C)B1OCCNCCO1 [Crystal form B of Example 2, N—((R)-1-(((R)-1-(1,3,6,2-dioxazaborolan-2-yl)-3-methylbutyl)amino)-3-(methylthio)-1-oxoprop-2-yl)-2,5-dichlorobenzamide] | weaker hygroscopicity compared with the crystal form D
0.95847 | 99.01 | 99.24 | 98.97 | 98.61 | 99.23 | 99.22 | 98.90 | no significant content change | excellent solubility property | 0.31809 (≈ 649 µM) |  | 1.4% | CSC[C@H](NC(=O)c1cc(Cl)ccc1Cl)C(=O)N[C@@H](CC(C)C)B1OCCNCCO1 [Crystal form A of Example 1, N—((R)-1-(((R)-1-(1,3,6,2-dioxazaborolan-2-yl)-3-methylbutyl)amino)-3-(methylthio)-1-oxoprop-2-yl)-2,5-dichlorobenzamide] | weaker hygroscopicity compared with the crystal form D
0.90291 | 98.05 | 97.88 | 97.68 | 98.07 | 98.39 | 98.52 | 98.49 | no significant content change | excellent solubility property | 0.30421 (≈ 621 µM) | Deliquescent | 2.4% | CSC[C@H](NC(=O)c1cc(Cl)ccc1Cl)C(=O)N[C@@H](CC(C)C)B1OCCNCCO1 [Crystal form D of Example 3, N—((R)-1-(((R)-1-(1,3,6,2-dioxazaborolan-2-yl)-3-methylbutyl)amino)-3-(methylthio)-1-oxoprop-2-yl)-2,5-dichlorobenzamide] | 

Compound | Kinetic solubility [1] [mg/mL] | Stability results (content) ([2]; 0 h) [%] | Stability results (content) [2, 5] [%] | Stability results (content) [2, 6] [%] | Stability results (content) [2, 7] [%] | Stability results (content) [2, 8] [%] | Stability results (content) [2, 9] [%] | Stability results (content) [2, 10] [%] | Stability during the 10 days of examination (in words) [2] | Solubility property (in words) [3] | Solubility [3] [mg/mL] | Hygroscopicity [4] | Weight change in the range of 0% RH to 80% RH [4] | Hygroscopicity comparison (in words) [4]
N—((R)-1-(((R)-1-(1,3,6,2-dioxazaborolan-2-yl)-3-methylbutyl)amino)-3-(methylthio)-1-oxoprop-2-yl)-2,5-dichlorobenzamide [White eutectic solid of Example 1] | 0.94816 | 98.10 |  |  |  | 93.18 | 97.49 | 98.06 | unstable | excellent solubility property | 0.31012 | Deliquescent | 2.1% | 
